Assay results: article PMC9608620, “Synthesis and Identification of New N,N-Disubstituted Thiourea, and Thiazolidinone Scaffolds Based on Quinolone Moiety as Urease Inhibitor” (Molecules, 2022)
Values after ≈ are worked out from the molar mass of the structure shown. Where two headings read alike, the source gives them in different places.

Columns and labels:
[1] = system: Proteus mirabilis (P. mirabilis) strain; assay: Antibacterial screening, cup-plate diffusion method; format: cell-based; settings: urease-positive clinical isolate from urine, number in brackets, read-out: MIC P. mirabilis (given in brackets)
Procedure: The Proteus mirabilis (P. mirabilis) strain was isolated from the urine of patients suffering from urinary tract infections. […] The test was performed using the cup-plate diffusion method

[2] = target: T1, urease (Jack bean urease) (Canavalia ensiformis, UniProt P07374); assay: biochemical; format: biochemical
Procedure: In vitro screening and inhibitory studies on urease (Jack bean urease) were determined using the colored Berthelot phenols method, which measures the liberation of ammonia from the reaction. Briefly, the assay mixture containing 1 unit of the enzyme was added to 650 µL of buffer solution (50 mmol phosphate buffer Ph 6.7, 400 mmol sodium salicylate, 10 mmol sodium nitroprusside, and 2 mmol EDTA/L) and mixed with 10 µL of different concentration 0.1–100 Mm of the tested compounds in DMF as a solvent. […] After 15 min incubation at room temperature, 10 µL of 50 mg/L urea solution was added. The mixture was incubated for 0.5 h in a water bath at 37 °C to allow the hydrolysis process.
After complete urea hydrolysis and ammonia liberation, the reaction was stopped by adding 200 µL of the hypochlorite reagent (150 mmol/L sodium hydroxide, 140 mm/L sodium hypochlorite). The liberated ammonia was allowed to complex with the hypochlorite and salicylate for 25 min at 30 °C. The absorbance was measured at 578 nm using a UV/VIS Spectrophotometer (Optizen POP, 5U4608, Daejeon, Korea), and experiments were performed in triplicate in a final volume of 1 mL. […] The percentage inhibition was calculated as the difference of absorbance values with and without the test compounds. The concentration that provokes an inhibition halfway between the minimum and maximum response of each compound (relative IC50) was determined by monitoring the inhibition effect of various concentrations of compounds in the assay.

[3] = target: T1, urease (Jack bean urease); settings: read-out: IC50 (µM) Urease; lead compound of the design rationale; cited from earlier work
[4] = Jack bean urease, triplicate, relative IC50, read-out: IC50 (µM) Urease

T1 sequence (P07374 whole entry, looked up): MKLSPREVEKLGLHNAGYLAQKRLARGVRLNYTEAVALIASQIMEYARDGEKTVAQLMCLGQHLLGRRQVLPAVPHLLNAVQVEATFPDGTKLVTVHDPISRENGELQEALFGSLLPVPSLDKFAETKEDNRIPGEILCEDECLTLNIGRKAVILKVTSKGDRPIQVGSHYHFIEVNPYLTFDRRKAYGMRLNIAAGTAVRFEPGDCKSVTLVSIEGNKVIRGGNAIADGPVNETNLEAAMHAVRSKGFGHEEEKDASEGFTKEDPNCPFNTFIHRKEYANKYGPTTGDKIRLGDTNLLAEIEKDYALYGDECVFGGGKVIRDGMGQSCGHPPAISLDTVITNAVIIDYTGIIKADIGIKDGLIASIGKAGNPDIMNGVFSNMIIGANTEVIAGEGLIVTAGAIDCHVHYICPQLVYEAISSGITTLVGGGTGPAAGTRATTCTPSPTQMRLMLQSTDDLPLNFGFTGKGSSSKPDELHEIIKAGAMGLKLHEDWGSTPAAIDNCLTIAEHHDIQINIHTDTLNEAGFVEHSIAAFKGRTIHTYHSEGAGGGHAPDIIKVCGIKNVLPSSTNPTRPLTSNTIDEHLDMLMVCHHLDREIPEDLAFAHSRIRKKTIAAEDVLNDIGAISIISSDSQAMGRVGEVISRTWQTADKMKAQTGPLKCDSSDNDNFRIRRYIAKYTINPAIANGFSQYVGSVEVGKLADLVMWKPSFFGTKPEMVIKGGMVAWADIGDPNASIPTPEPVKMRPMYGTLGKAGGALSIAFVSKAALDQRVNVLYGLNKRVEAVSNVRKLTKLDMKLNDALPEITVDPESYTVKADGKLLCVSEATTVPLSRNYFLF

SMILES	melting point [°C]	MIC [1] [µg/mL]	IC50 [2] [µM]	fold more potent than thiourea and acetohydroxamic acid (urease inhibition) ([2]; relative to the reference inhibitors)	IC50 [3] [µM]	IC50 [2, 4] [µM]
COC(=O)/C=C1/SC(=NNC(=O)COc2cc(=O)[nH]c3ccccc23)N(Cc2ccccc2)C1=O [Compound 7k, (2E)-Methyl 2-(3-benzyl-4-oxo-2-(2-(2-((2-oxo-1,2-dihydroquinolin-4-yl)oxy)acetyl)-hydrazono)thiazolidin-5-ylidene)acetate]	251 to 253	200 (≈ 406 µM)	49.45 ± 0.09			
CCOC(=O)/C=C1/SC(=NNC(=O)COc2cc(=O)n(C)c3ccccc23)N(c2ccccc2)C1=O [Compound 7d, (2E)-Ethyl 2-(2-(2-(2-((1-methyl-2-oxo-1,2-dihydroquinolin-4-yl)oxy)acetyl)-hydrazono)-4-oxo-3-phenylthiazolidin-5-ylidene)acetate]	223 to 225	200 (≈ 395 µM)	26.8 ± 1.11			
O=C(COc1cc(=O)[nH]c2ccccc12)NNC(=S)NCc1ccccc1 [Compound 5g, N-Benzyl-2-(2-((2-oxo-1,2-dihydroquinolin-4-yl)oxy)acetyl)hydrazinecarbothioamide]	199 to 201	100 (≈ 261 µM)	11.2 ± 0.27			
Cn1c(=O)cc(OCC(=O)NNC(=S)Nc2ccccc2)c2ccccc21 [Compound 5c, 2-(2-((1-Methyl-2-oxo-1,2-dihydroquinolin-4-yl)oxy)acetyl)-N-phenylhydrazinecarbothioamide]	161 to 163	100 (≈ 261 µM)	1.83 ± 0.79	approximately 12 fold		
C=CCNC(=S)NNC(=O)COc1cc(=O)[nH]c2ccccc12 [Compound 5f, N-Allyl-2-(2-((2-oxo-1,2-dihydroquinolin-4-yl)oxy)acetyl)hydrazinecarbothioamide]	169 to 171	100 (≈ 301 µM)	9.45 ± 0.08			
C=CCN1C(=O)/C(=C\C(=O)OC)S/C1=N\NC(=O)COc1cc(=O)[nH]c2ccc(C)cc12 [Compound 7f, (E)-Methyl 2-((Z)-3-allyl-2-(2-(2-((6-methyl-2-oxo-1,2-dihydroquinolin-4-yl)oxy)-acetyl)hydrazono)-4-oxothiazolidin-5-ylidene)acetate]	232 to 233	200 (≈ 438 µM)	31.58 ± 0.15			
C=CCN1C(=O)/C(=C\C(=O)OCC)S/C1=N\NC(=O)COc1cc(=O)[nH]c2ccccc12 [Compound 7i, (2E)-Ethyl 2-(3-allyl-4-oxo-2-(2-(2-((2-oxo-1,2-dihydroquinolin-4-yl)oxy)acetyl)hydra-zono)thiazolidin-5-ylidene)acetate]		200 (≈ 438 µM)	42.8 ± 1.51			
CCOC(=O)/C=C1/S/C(=N\NC(=O)COc2cc(=O)n(C)c3ccccc23)N(Cc2ccccc2)C1=O [Compound 7b]	243 to 245	200 (≈ 384 µM)	24 ± 0.88			
CCOC(=O)/C=C1/S/C(=N\NC(=O)COc2cc(=O)[nH]c3ccccc23)N(Cc2ccccc2)C1=O [Compound 7l, (E)-Ethyl 2-((Z)-3-benzyl-4-oxo-2-(2-(2-((2-oxo-1,2-dihydroquinolin-4-yl)oxy)acetyl)-hydrazono)thiazolidin-5-ylidene)acetate]	249 to 251	200 (≈ 395 µM)	37.21 ± 0.28			
C=CCNC(=S)NNC(=O)COc1cc(=O)[nH]c2ccc(C)cc12 [Compound 5d, N-Allyl-2-(2-((6-methyl-2-oxo-1,2-dihydroquinolin-4-yl)oxy)acetyl)hydrazine-1-carbothioamide]	174 to 176	100 (≈ 289 µM)	5.29 ± 0.36			
CCNC(=S)NNC(=O)Cn1c(Cc2ccc(F)cc2)nc2ccccc2c1=O [lead I, N-ethyl-2-(2-(2-(4-fluorobenzyl)-4-oxoquinazolin-3(4H)-yl)acetyl)hydrazinecarbothioamide]					6.02 ± 0.27	
CC(=O)NO [Acetohydroxamic acid, reference compound]						21 ± 0.94
Cc1ccc2[nH]c(=O)cc(OCC(=O)NNC(=S)NCc3ccccc3)c2c1 [Compound 5e, N-Benzyl-2-(2-((6-methyl-2-oxo-1,2-dihydroquinolin-4-yl)oxy)acetyl)hydrazinecarbothioamide]	183 to 185	100 (≈ 252 µM)	5.6 ± 0.84			
Cn1c(=O)cc(OCC(=O)NNC(=S)NCc2ccccc2)c2ccccc21 [Compound 5b, N-Benzyl-2-(2-((1-methyl-2-oxo-1,2-dihydroquinolin-4-yl)oxy)acetyl)hydrazinecarbothioamide]	190 to 192	100 (≈ 252 µM)	2.58 ± 0.1			
NC(N)=S [Thiourea]						22.8 ± 1.31
C=CCNC(=S)NNC(=O)COc1cc(=O)n(C)c2ccccc12 [Compound 5a, N-Allyl-2-(2-((1-methyl-2-oxo-1,2-dihydroquinolin-4-yl)oxy)acetyl)hydrazinecarbo-thioamide]	177 to 179	100 (≈ 289 µM)	2.48 ± 0.18			
C=CCN1C(=O)/C(=C\C(=O)OCC)S/C1=N\NC(=O)COc1cc(=O)[nH]c2ccc(C)cc12 [Compound 7e, (E)-Ethyl 2-((Z)-3-allyl-2-(2-(2-((6-methyl-2-oxo-1,2-dihydroquinolin-4-yl)oxy)acetyl)-hydrazono)-4-oxothiazolidin-5-ylidene)acetate]	239 to 241	200 (≈ 425 µM)	29.8 ± 1.31			
CCOC(=O)/C=C1/S/C(=N\NC(=O)COc2cc(=O)[nH]c3ccc(C)cc23)N(Cc2ccccc2)C1=O [Compound 7h, (E)-Ethyl 2-((Z)-3-benzyl-2-(2-(2-((6-methyl-2-oxo-1,2-dihydroquinolin-4-yl)oxy)acetyl)-hydrazono)-4-oxothiazolidin-5-ylidene)acetate]	233 to 235	200 (≈ 384 µM)	31.3 ± 0.36			
COC(=O)/C=C1/SC(=NNC(=O)COc2cc(=O)[nH]c3ccc(C)cc23)N(Cc2ccccc2)C1=O [Compound 7g, (2E)-Methyl 2-(3-benzyl-2-(2-(2-((6-methyl-2-oxo-1,2-dihydroquinolin-4-yl)oxy)acetyl)-hydrazono)-4-oxothiazolidin-5-ylidene)acetate]	241 to 243	200 (≈ 395 µM)	45.43 ± 0.19			
COC(=O)/C=C1/SC(=NNC(=O)COc2cc(=O)n(C)c3ccccc23)N(c2ccccc2)C1=O [Compound 7c, (2E)-Methyl 2-(2-(2-(2-((1-methyl-2-oxo-1,2-dihydroquinolin-4-yl)oxy)acetyl)-hydrazono)-4-oxo-3-phenylthiazolidin-5-ylidene)acetate]	229 to 231	200 (≈ 406 µM)	18.8 ± 1.72			
C=CCN1C(=O)/C(=C\C(=O)OC)SC1=NNC(=O)COc1cc(=O)n(C)c2ccccc12 [Compound 7a, (2E)-Methyl 2-(3-allyl-2-(2-(2-((1-methyl-2-oxo-1,2-dihydroquinolin-4-yl)oxy)acetyl)-hydrazono)-4-oxothiazolidin-5-ylidene)acetate]	233 to 235	200 (≈ 438 µM)	36.28 ± 0.1			
C=CCN1C(=O)/C(=C\C(=O)OC)SC1=NNC(=O)COc1cc(=O)[nH]c2ccccc12 [Compound 7j, (2E)-Methyl 2-(3-allyl-4-oxo-2-(2-(2-((2-oxo-1,2-dihydroquinolin-4-yl)oxy)acetyl)-hydrazono)thiazolidin-5-ylidene)acetate]	244 to 246	200 (≈ 452 µM)	51.4 ± 0.91			
